Patent publication US12661362B2, “Methods for the prevention and treatment of hearing loss” (Ting Therapeutics LLC, priority 2020, dated 2026)

Tested on: zebrafish neuromast HCs
Experiment: Zebrafish lateral-line neuromast hair cell protection against Cisplatin
Assay type: in vivo, Danio rerio
Protocol: Danio rerio experimental larvae were obtained by pair mating of adult fish maintained at Creighton University by standard methods approved by the Institutional Animal Care and Use Committee. […] We used Tg(pou4f3:mGFP) expressing a membrane bound GFP in HCs. Experimental fish were maintained at 28.5° C. in E3 media (5 mM NaCl, 0.17 mM KCl, 0.33 mM CaCl2) and […], pH 7.2). Animals were cryoanaesthetized after drug treatment and prior to fixation. The neuromasts inspected, S03 and 01-2, were part of the cranial system and included the otic, middle, and opercular neuromasts.
Subsequently, animals were transferred to E3 water for 5 hours and fixed in 4% paraformaldehyde (PFA) overnight (26). Neuromast HCs were immunolabeled with anti-otoferlin (HCS-1, DSHB) and anti-GFP (NB100-1614, Novus Biologicals). These two markers were used to detect and count neuromast HCs to reduce the chances of missing some of the HCs after the treatment since we previously noticed that incubation with the compounds can affect GFP expression more difficult to detect under a fluorescence microscope. Otic, middle, and opercular neuromasts were identified, and HCs at S03 (supraorbital line neuromast) and 01-2 (Otic line neuromasts) were manually counted using a Zeiss AxioSkop 2 fluorescence microscope with a 40× oil objective. Compounds were then evaluated on efficiency and potency, with the top-rated compounds showing high protection at lower concentrations.

With O=C(Nc1ccc([N+](=O)[O-])cc1Cl)c1cc(Cl)ccc1O [Niclosamide, 5-chloro-N-(2-chloro-4-nitrophenyl)-2-hydroxy-benzamide] the “highest level of protection of neuromast HCs” value (0.002 μM, lowest concentration tested, normalized to Cisplatin only (0%) and DMSO (100%)) was roughly 50%, the “hair cell loss (fluorescent staining of neuromasts)” value (0.002-13.3 μM, Cisplatin-treated zebrafish) was “reduce hair cell loss” and the “Cisplatin damage in zebrafish HCs at S03 and O1-2” value (pretreated with 0.002 μM) was “significantly reduced Cisplatin damage”.
